Assay results from patent publication US20230064983A1 (priority 2020, published 2023).
“And” between values parts separate entries of the source, which are not always exact repeats. Identical values can stand only once. Like-named read-outs stand apart in the source and are kept apart here.

How the values were obtained:
[1] = target: T1, EGFR with insertion SVD between D770 and N771 (mutEGFR D770_N771insSVD) (Homo sapiens, UniProt P00533, DUP768-770); experiment: Exon20-Mutant-EGFR(D770_N771insSVD) kinase assay (TR-FRET); format: biochemical; conditions: 2 mM ATP, Table 2
T1 construct: amino acids R669 to A1210; made in house; host or cells: Sf9 insect cells (baculovirus)
T1 sequence (P00533 other isoform, or with tags, fused parts or gaps DUP768-770): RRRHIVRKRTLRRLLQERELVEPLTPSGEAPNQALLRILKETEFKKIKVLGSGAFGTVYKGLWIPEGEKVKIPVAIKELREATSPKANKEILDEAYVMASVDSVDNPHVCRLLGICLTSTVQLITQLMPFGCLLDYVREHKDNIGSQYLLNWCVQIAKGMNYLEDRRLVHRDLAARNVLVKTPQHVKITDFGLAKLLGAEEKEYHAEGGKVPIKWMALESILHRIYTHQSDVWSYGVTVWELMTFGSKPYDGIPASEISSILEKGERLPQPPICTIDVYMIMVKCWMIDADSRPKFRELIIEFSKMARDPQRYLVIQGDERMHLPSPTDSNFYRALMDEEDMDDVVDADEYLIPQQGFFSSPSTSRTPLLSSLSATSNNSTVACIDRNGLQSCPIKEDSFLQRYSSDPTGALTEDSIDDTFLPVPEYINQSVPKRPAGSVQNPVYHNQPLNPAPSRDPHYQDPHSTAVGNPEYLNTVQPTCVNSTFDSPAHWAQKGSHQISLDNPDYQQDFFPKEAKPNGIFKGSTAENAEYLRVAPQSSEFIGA

Bub1 = target: T2, Bub1 (Homo sapiens, UniProt O43683); experiment: Bub1 high ATP kinase assay (TR-FRET); format: biochemical; conditions: 2 mM ATP, Table 3
T2 construct: catalytic domain of human Bub1 (amino acids 704-1085); His6 (N); made in house; host or cells: insect cells (Hi5)
T2 sequence (O43683 704-1085): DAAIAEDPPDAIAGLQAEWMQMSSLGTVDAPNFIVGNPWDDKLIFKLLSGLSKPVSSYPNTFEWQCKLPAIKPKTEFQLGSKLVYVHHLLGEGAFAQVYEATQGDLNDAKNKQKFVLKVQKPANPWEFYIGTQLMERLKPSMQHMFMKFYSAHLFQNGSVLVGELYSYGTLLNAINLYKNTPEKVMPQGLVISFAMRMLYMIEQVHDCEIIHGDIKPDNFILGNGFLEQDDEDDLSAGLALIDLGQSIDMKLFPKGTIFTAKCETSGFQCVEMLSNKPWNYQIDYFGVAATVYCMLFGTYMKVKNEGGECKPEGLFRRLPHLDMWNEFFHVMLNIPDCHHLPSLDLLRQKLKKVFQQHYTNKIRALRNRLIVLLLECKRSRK
Excerpt: Bub1 high ATP Kinase Assay
Bub1-inhibitory activity of compounds of the present invention at a high ATP concentration was quantified employing the Bub1 TR-FRET high ATP kinase assay as described in the following paragraphs.
N-terminally His6-tagged recombinant catalytic domain of human Bub1 (amino acids 704-1085), expressed in insect cells (Hi5) and purified by Ni-NTA affinity chromatography and subsequent size exclusion chromatography, was used as enzyme. As substrate for the kinase reaction the biotinylated peptide biotin-Ahx-[…] (C-terminus in amid form) was used which can be purchased e.g. form the company Biosyntan (Berlin, Germany).
Then the kinase reaction was started by the addition of 2 μl of a solution of Bub1 in assay buffer and the resulting mixture was incubated for a reaction time of 60 min at 22° C. The concentration of Bub1 was adjusted depending of the activity of the enzyme lot and was chosen appropriate to have the assay in the linear range, a typical concentration is about 200 ng/ml. The reaction was stopped by the addition of 3 μl of a solution of TR-FRET detection reagents (0.167 μM streptavidine-XL665 [Cisbio Bioassays, Codolet, France] and 1.67 nM anti-phosho-Serine antibody [Merck Millipore, cat. #35-002] and 0.67 nM LANCE EU-W1024 labeled anti-mouse IgG antibody [Perkin-Elmer, product no. AD0077, as an alternative a Terbium-cryptate-labeled anti-mouse IgG antibody from Cisbio Bioassays can be used]) in an aqueous EDTA-solution (83.3 mM EDTA, 0.2% (w/v) bovine serum albumin in 100 mM HEPES pH 7.5).
The resulting mixture was incubated 1 h at 22° C. to allow the formation of complex between the phosphorylated biotinylated peptide and the detection reagents. Subsequently the amount of phosphorylated substrate was evaluated by measurement of the resonance energy transfer from the Eu-chelate to the streptavidine-XL. Therefore, the fluorescence emissions at 620 nm and 665 nm after excitation at 350 nm was measured in a TR-FRET reader, e.g. a Pherastar or Pherastar FS (both from BMG Labtechnologies, Offenburg, Germany) or a Viewlux (Perkin-Elmer). The ratio of the emissions at 665 nm and at 622 nm was taken as the measure for the amount of phosphorylated substrate.

[2] = target: Ba/F3-EGFR-D770_N771insSVD cells (Homo sapiens, UniProt P00533, DUP768-770, cells depend on it); experiment: Ba/F3 cell survival assay, EGFR D770_N771insSVD; format: cell-based; conditions: Cell Titer-Glo, 48 h, without IL-3; Table 4; read-out: BA/F3 (insSVD) IC50
Ba/F3-EGFR-D770_N771insSVD cells, sequence (P00533 with tags, fused parts or gaps DUP768-770): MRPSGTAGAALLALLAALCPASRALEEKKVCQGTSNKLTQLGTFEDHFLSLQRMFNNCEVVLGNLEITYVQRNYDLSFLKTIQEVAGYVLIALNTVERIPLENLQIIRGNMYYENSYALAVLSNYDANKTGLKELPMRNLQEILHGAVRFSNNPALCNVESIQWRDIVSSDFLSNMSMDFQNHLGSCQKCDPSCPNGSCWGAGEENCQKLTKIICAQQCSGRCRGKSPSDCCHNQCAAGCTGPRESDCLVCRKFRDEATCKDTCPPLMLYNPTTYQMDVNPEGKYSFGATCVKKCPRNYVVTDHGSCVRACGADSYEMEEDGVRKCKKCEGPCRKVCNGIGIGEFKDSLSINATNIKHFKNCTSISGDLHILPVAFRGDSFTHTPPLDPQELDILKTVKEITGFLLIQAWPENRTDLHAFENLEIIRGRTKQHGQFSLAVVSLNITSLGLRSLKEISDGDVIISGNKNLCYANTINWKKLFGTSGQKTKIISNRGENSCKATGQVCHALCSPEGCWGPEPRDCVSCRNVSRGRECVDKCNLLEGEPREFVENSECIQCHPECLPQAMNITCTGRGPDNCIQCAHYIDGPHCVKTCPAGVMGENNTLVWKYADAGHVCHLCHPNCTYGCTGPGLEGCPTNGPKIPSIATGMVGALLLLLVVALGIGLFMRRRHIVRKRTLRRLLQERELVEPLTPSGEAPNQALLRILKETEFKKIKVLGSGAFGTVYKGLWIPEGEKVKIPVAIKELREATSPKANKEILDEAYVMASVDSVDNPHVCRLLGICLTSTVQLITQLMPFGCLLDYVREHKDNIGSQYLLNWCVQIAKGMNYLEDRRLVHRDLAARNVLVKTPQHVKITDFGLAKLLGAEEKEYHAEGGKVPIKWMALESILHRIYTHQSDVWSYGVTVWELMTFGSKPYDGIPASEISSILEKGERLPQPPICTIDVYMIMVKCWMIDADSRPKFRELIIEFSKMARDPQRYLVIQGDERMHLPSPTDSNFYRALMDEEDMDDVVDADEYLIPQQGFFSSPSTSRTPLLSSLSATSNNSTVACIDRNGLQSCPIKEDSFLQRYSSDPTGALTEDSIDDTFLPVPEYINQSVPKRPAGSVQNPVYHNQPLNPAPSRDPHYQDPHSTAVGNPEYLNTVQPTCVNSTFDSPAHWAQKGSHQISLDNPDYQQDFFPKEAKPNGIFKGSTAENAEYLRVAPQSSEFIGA

Ba/F3-EGFR-WT cells = Ba/F3-EGFR-WT cells (Homo sapiens, UniProt P00533); experiment: Ba/F3 cell survival assay, wild type EGFR; format: cell-based; conditions: Cell Titer-Glo, 48 h, with 10 ng/mL EGF; Table 4; read-out: BA/F3 (wild type) IC50
Ba/F3-EGFR-WT cells, sequence (P00533 whole entry, looked up, change not shown): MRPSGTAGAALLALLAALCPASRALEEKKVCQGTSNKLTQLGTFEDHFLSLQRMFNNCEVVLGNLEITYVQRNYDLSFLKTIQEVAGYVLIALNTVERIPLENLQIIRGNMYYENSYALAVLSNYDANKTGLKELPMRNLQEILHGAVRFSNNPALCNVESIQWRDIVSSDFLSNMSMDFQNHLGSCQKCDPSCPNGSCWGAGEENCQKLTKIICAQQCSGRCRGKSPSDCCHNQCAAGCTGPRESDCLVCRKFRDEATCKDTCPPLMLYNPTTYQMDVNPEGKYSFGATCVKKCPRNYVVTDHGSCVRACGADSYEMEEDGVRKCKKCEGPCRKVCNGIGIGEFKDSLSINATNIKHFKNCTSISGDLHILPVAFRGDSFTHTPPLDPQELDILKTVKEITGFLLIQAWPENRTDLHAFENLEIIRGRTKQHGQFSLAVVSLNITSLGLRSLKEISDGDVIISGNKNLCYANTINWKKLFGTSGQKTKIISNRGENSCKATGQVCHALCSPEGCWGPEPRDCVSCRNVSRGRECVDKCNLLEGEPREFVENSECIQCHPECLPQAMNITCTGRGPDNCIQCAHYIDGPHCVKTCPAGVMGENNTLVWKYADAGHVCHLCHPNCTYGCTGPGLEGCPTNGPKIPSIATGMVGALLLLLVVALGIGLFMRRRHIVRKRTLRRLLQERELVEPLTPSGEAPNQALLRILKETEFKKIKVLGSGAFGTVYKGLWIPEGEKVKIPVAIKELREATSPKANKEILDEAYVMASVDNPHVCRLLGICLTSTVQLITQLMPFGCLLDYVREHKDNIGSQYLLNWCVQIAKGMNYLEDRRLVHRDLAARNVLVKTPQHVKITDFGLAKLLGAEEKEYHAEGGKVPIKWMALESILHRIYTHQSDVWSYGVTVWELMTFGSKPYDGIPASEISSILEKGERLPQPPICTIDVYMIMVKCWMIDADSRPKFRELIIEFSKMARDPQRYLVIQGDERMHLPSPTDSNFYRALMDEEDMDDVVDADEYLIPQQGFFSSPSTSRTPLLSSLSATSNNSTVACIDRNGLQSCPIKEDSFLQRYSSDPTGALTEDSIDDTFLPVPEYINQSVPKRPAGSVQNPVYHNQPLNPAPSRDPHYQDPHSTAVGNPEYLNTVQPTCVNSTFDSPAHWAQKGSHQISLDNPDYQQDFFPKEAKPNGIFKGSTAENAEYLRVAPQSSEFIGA

[3] = Bub1 high ATP (2 mM) IC50, TR-FRET
[4] = read-out: Bub1 high ATP (2 mM) IC50, TR-FRET

Row | Structure (SMILES) | mutEGFR (D770_N771insSVD) kinase assay IC50 [1] | IC50 (Bub1; [3]) [µM] | IC50 (Bub1; [4]) [µM] | GI50 [2] [nM] | GI50 (Ba/F3-EGFR-WT cells) [nM]
1 | COc1c(Cl)cccc1Nc1c(-c2ccncc2OCCC(C)OC)[nH]c2c1C(=O)N[C@H](C)C2 (mixture of isomers) [Example 120, (6R)-3-(3-chloro-2-methoxy-anilino)-2-[3-(3-methoxybutoxy)-4-pyridyl]-6-methyl-1,5,6,7-tetrahydropyrrolo[3,2-c]pyridin-4-one] | 90.1 pM | 1.48 |  | 31.1 | 358
2 | COc1c(Cl)cccc1Nc1c(-c2ccncc2OCC2COC(C)(C)CO2)[nH]c2c1C(=O)NCC2C (single isomer, unassigned) [Example 97, 3-(3-chloro-2-methoxy-anilino)-2-[3-[(5,5-dimethyl-1,4-dioxan-2-yl)methoxy]-4-pyridyl]-7-methyl-1,5,6,7-tetrahydropyrrolo[3,2-c]pyridin-4-one] | 796 pM |  | > 20 | 32.1 | 1130
3 | COc1c(Cl)cccc1Nc1c(-c2ccncc2OCC2OCCCC2(F)F)[nH]c2c1C(=O)N[C@H](C)C2 (single isomer, unassigned) [Example 76] | 240 pM | > 5.7 |  | 177 | 2440
4 | COc1c(Cl)cccc1Nc1c(-c2ccncc2OCC2CCCCN2C)[nH]c2c1C(=O)N[C@H](C)C2 (single isomer, unassigned) [Example 85] | 948 pM |  | > 20 | 103 | 1170
5 | COc1c(Cl)cccc1Nc1c(-c2ccncc2OCC2CCCCO2)[nH]c2c1C(=O)NCC2C (single isomer, unassigned) [Example 45, 3-(3-chloro-2-methoxy-anilino)-7-methyl-2-[3-(tetrahydropyran-2-ylmethoxy)-4-pyridyl]-1,5,6,7-tetrahydropyrrolo[3,2-c]pyridin-4-one] | 391 pM | > 20 |  | 47.3 | 840
6 | COc1c(Cl)cccc1Nc1c(-c2ccncc2OC[C@@H]2CCCO2)[nH]c2c1C(=O)NCC2C (single isomer, unassigned) [Example 31] | 119 pM | > 20 |  | 125 | 2770
7 | COc1c(Cl)cccc1Nc1c(-c2ccncc2OCC2CCCCO2)[nH]c2c1C(=O)N[C@H](C)C2 (mixture of isomers) [Example 27, (6R)-3-(3-chloro-2-methoxy-anilino)-6-methyl-2-[3-(tetrahydropyran-2-ylmethoxy)-4-pyridyl]-1,5,6,7-tetrahydropyrrolo[3,2-c]pyridin-4-one] | 97.3 pM | > 5.7 |  | 12 | 305
8 | COc1c(Cl)cccc1Nc1c(-c2ccncc2OCC2CCCCN2C)[nH]c2c1C(=O)N[C@H](C)C2 (single isomer, unassigned) [Example 84] | 657 pM | > 20 |  | 16.1 | 379

Further compounds by falling IC50 (Bub1; [3]), results first:

Row | mutEGFR (D770_N771insSVD) kinase assay IC50 [1] | IC50 (Bub1; [3]) [µM] | IC50 (Bub1; [4]) [µM] | Structure (SMILES) | GI50 [2] [nM] | GI50 (Ba/F3-EGFR-WT cells) [nM]
9 | 316 pM | 17.2 |  | COc1c(Cl)cccc1Nc1c(-c2ccncc2OCC2(C)CCO2)[nH]c2c1C(=O)NCC2CCO (single isomer, unassigned) [Example 20, 3-(3-chloro-2-methoxyanilino)-7-(2-hydroxyethyl)-2-{3-[(2-methyloxetan-2-yl)methoxy]pyridin-4-yl}-1,5,6,7-tetrahydro-4H-pyrrolo[3,2-c]pyridin-4-one] | 122 | 1170
10 | 456 pM | 13.2 |  | COc1c(Cl)cccc1Nc1c(-c2ccncc2OC[C@@H]2COCCN2C)[nH]c2c1C(=O)NCC2CCO (single isomer, unassigned) [Example 115] |  | 5420
11 | 142 pM | 10 |  | COc1c(Cl)cccc1Nc1c(-c2ccncc2OCC2COCCO2)[nH]c2c1C(=O)N[C@@H]1CCC[C@H]21 (mixture of isomers) [Example 52, (5aR,8aS)-3-(3-chloro-2-methoxyanilino)-2-{3-[(1,4-dioxan-2-yl)methoxy]-4-pyridyl}-5,5a,6,7,8,8a-hexahydrocyclopenta[b]pyrrolo[2,3-d]pyridin-4(1)-one] | 38.9 | 407
12 | 139 pM | 9.72 |  | COc1c(Cl)cccc1Nc1c(-c2ccncc2OCC2CCCCO2)[nH]c2c1C(=O)N[C@H](C)C2 (single isomer, unassigned) [Example 28] | 8.33 | 189
13 | 213 pM | 8.81 |  | COCC(C)Oc1cnccc1-c1[nH]c2c(c1Nc1cccc(Cl)c1OC)C(=O)N[C@H](C)C2 (single isomer, unassigned) [Example 42] | 15.3 | 531
14 | 195 pM | 6.45 |  | COc1c(Cl)cccc1Nc1c(-c2ccncc2OCC2CCCCO2)[nH]c2c1C(=O)NCC2C (stereo not drawn) [Example 44, 3-(3-chloro-2-methoxy-anilino)-7-methyl-2-[3-(tetrahydropyran-2-ylmethoxy)-4-pyridyl]-1,5,6,7-tetrahydropyrrolo[3,2-c]pyridin-4-one] | 40.5 | 594
15 | 499 pM | 3.88 |  | COc1c(Cl)cccc1Nc1c(-c2ccncc2OC[C@@H]2COCCN2C)[nH]c2c1C(=O)NCC2CCF (single isomer, unassigned) [Example 90] | 83.8 | 1170
16 |  | 3.64 |  | COc1c(Cl)cccc1Nc1c(-c2ccncc2OC[C@@H]2CCCO2)[nH]c2c1C(=O)NCC2C (single isomer, unassigned) [Example 32] | 52.7 | 737
17 | 111 pM and <72.5 pM | 3.48 |  | COc1c(Cl)cccc1Nc1c(-c2ccncc2OCC2COCCO2)[nH]c2c1C(=O)N[C@H](C)C2 (mixture of isomers) [Example 24, (6R)-3-(3-chloro-2-methoxy-anilino)-2-[3-(1,4-dioxan-2-ylmethoxy)-4-pyridyl]-6-methyl-1,5,6,7-tetrahydropyrrolo[3,2-c]pyridin-4-one] | 20.8 | 500
18 | 240 pM | 2.52 |  | COC(C)(C)COc1cnccc1-c1[nH]c2c(c1Nc1cccc(F)c1CC(F)F)C(=O)N[C@H](C)C2 [Example 65, (6R)-3-[2-(2,2-difluoroethyl)-3-fluoroanilino]-2-[3-(2-methoxy-2-methylpropoxy)pyridin-4-yl]-6-methyl-1,5,6,7-tetrahydro-4H-pyrrolo[3,2-c]pyridin-4-one] | 72 | 795
19 | 324 pM | 1.52 |  | Cc1c(Cl)cccc1Nc1c(-c2ccncc2OCC2CCCCO2)[nH]c2c1C(=O)NCC2C (single isomer, unassigned) [Example 119, 3-(3-chloro-2-methyl-anilino)-7-methyl-2-[3-(tetrahydropyran-2-ylmethoxy)-4-pyridyl]-1,5,6,7-tetrahydropyrrolo[3,2-c]pyridin-4-one] | 54.7 | 1290
20 | 158 pM | 1.39 |  | COc1c(Cl)cccc1Nc1c(-c2ccncc2OCC(C)(C)OC)[nH]c2c1C(=O)NCC2CCO (single isomer, unassigned) [Example 15, 3-(3-chloro-2-methoxyanilino)-7-(2-hydroxyethyl)-2-[3-(2-methoxy-2-methylpropoxy)pyridin-4-yl]-1,5,6,7-tetrahydro-4H-pyrrolo[3,2-c]pyridin-4-one] | 192 | 895
